Test results published in article PMC7673538 (PLoS Biology, 2020).
Where “and” joins values, the source holds several entries; their conditions need not be identical. Equal values may be shown once. Read-outs that look alike come from different tables or passages of the source.

How the values were obtained:
EV-D68 = test: microbe, parasite or virus in culture; assay type: cell-based, enterovirus D68; conditions: Enterovirus D
human DAT = biological target: T1, human DAT (Homo sapiens, UniProt Q01959); assay type: cell-based; conditions: for DAT, Mean (Figure 8B): Control = 100; for DAT, Mean as % (Figure 8B): Control = 100%
T1 construct: expressed in transfected cells; host or cells: HEK293 (gift of Dr. Hoener, F. Hoffmann-La Roche)

EV-A71 (strain BrCr) = assay type: cell-based, enterovirus A71
CV-A24 = test: microbe, parasite or virus in culture; assay type: cell-based, coxsackievirus A24
EV-A71 = test: microbe, parasite or virus in culture; assay type: cell-based, enterovirus A71; conditions: for EC50: Enterovirus A
in vitro [1] = conditions: human
in vitro [2] = conditions: human; remark: listed apart in the source
CV-A24 (strain Joseph) = assay type: cell-based, coxsackievirus A24
HRV-B14 = test: microbe, parasite or virus in culture; assay type: cell-based, human rhinovirus; conditions: Human rhinovirus sp.
CV-B3 = test: microbe, parasite or virus in culture; assay type: cell-based, coxsackievirus B3; conditions: Enterovirus B, CVB3, BGM
CV-B3 (strain Nancy) = assay type: cell-based, coxsackievirus B3

T1 sequence (Q01959 whole entry): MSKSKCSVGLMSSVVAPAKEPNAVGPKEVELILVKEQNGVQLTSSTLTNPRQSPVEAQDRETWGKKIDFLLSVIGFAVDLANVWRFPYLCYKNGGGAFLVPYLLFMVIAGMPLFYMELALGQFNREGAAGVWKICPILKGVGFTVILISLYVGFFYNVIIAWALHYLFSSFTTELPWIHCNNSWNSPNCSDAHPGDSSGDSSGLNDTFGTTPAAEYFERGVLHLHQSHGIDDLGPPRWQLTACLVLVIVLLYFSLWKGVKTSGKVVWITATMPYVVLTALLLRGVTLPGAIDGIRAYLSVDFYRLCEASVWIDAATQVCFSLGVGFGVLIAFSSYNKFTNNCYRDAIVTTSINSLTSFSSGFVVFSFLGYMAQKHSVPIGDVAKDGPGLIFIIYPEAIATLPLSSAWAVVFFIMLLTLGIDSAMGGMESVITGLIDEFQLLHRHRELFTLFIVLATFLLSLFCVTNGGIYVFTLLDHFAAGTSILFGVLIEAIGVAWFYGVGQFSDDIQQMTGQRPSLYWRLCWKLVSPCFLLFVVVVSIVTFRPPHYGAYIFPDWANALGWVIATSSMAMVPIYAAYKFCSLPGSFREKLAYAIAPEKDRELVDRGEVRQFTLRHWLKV

For O=C(c1ccco1)N(Cc1ccc(C(F)(F)F)cc1)c1ccccc1 [Compound 19d, N-phenyl-N-(4-(trifluoromethyl)benzyl)furan-2-carboxamide], the EC50 (EV-D68; EVD68, HeLa R19, read-out: EC50 EV-D68 strain 4311000742) was 3.91 ± 0.13 µM, the EC50 (EV-D68; EVD68 / genotype 2c, HeLa R19, read-out: EC50 EV-D68 WT) was 1.55 ± 0.17 µM and the “DAT, Mean (Figure 8B)” value (human DAT; 1µM) was 99.9783. The “DAT, Mean as % (Figure 8B)” value (human DAT; 1µM) was 76%, the “DAT, Mean (Figure 8B)” value (human DAT; 100µM) was 90.1191 and the “DAT, Mean as % (Figure 8B)” value (human DAT; 100µM) was 90%. The “inhibition of DAT function (in words)” value (human DAT; HEK293 cells expressing human DAT, 1 μM or 100 μM) was “neither 12a, 19b, 19d, nor the combined compound 12b inhibited”, the “virus titer, TCID50/ml (Figure 2A)” value (EV-A71 (strain BrCr); compound concentration 10 µM) was 316.228 TCID50/ml and the “virus titer, TCID50/ml (Figure 2A)” value (EV-A71 (strain BrCr); compound concentration 30 µM) was 316.228 TCID50/ml. For the same compound, the “virus titer, TCID50/ml (Figure 2A)” value (EV-A71 (strain BrCr); compound concentration 100 µM) was 316.228 TCID50/ml, the “virus titer, TCID50/ml (Figure 2A)” value (EV-A71 (strain BrCr); compound concentration 150 µM) was 316.228 TCID50/ml and the EC50 (CV-A24; Enterovirus C, CVA24, HeLa R19, read-out: EC50 CV-A24) was 19.5 ± 0.55 µM. For the same compound, the EC50 (CV-A24; Enterovirus C, CVA24, HeLa R19, read-out: EC50 CV-A24 strain Joseph) was 18.7 ± 0.67 µM, the EC50 (CV-A24; Enterovirus C, CVA24, HeLa R19, read-out: EC50 Exp1) was 19 µM and the EC50 (CV-A24; Enterovirus C, CVA24, HeLa R19, read-out: EC50 Exp2) was 20.1 µM. For the same compound, the EC50 (CV-A24; read-out: EC50 Exp1) was 18 µM, the EC50 (CV-A24; read-out: EC50 Exp2) was 19.3 µM and the “resistance of reverse-engineered EV-A71 2C M193L (in words)” value (EV-A71) was “conferred 19d resistance”. For the same compound, the “resistance of reverse-engineered EV-A71 2C M193L/R151H (in words)” value (EV-A71) was “further increased the resistance”, the “resistance of reverse-engineered EV-A71 2C M193L/R151H/T133S (in words)” value (EV-A71) was “slightly further increased resistance” and the “resistance of reverse-engineered EV-A71 2C R151H (in words)” value (EV-A71) was “did not confer resistance”. The “multicycle replication assay read-out, EV-A71(BrCr)” value (EV-A71; 0.2344 µM) was 5.8952 and 4.978 and 5.24, the “multicycle replication assay read-out, EV-A71(BrCr)” value (EV-A71; 0.4688 µM) was 6.681 and 6.55 and 6.0262 and the “multicycle replication assay read-out, EV-A71(BrCr)” value (EV-A71; 1.875 µM) was 102.314 and 101.266 and 100.218. The “multicycle replication assay read-out, EV-A71(BrCr)” value (EV-A71; 3.75 µM) was 101.266 and 99.5633 and 96.5502, the “multicycle replication assay read-out, EV-A71(BrCr)” value (EV-A71; 7.5 µM) was 100.48 and 99.0393 and 95.2402 and the “multicycle replication assay read-out, EV-A71(BrCr)” value (EV-A71; 15 µM) was 94.1921 and 92.2271 and 88.5589. For the same compound, the “multicycle replication assay read-out, EV-A71(BrCr)” value (EV-A71; 30 µM) was 98.1223 and 94.4541 and 90.524, the EC50 (EV-A71; EVA71, HeLa R19, read-out: EC50 Average) was 1.29 µM and the EC50 (EV-A71; EVA71, HeLa R19, read-out: EC50 EV-A71) was 0.27 ± 0.12 µM. It also gave an EC50 (EV-A71; EVA71, HeLa R19, read-out: EC50 EV-A71 strain BrCr) of 1.68 ± 0.62 µM, an EC50 (EV-A71; EVA71, HeLa R19, read-out: EC50 EV-A71 strain TW/2728/04) of 2.33 ± 1.23 µM and an EC50 (EV-A71; EVA71, HeLa R19, read-out: EC50 EV-A71 strain TW/2945/98) of 2.9 ± 1.03 µM. It also gave an EC50 (EV-A71; EVA71, HeLa R19, read-out: EC50 EV-A71 strain TW/70811/08) of 0.754 ± 0.01 µM, an EC50 (EV-A71; EVA71, HeLa R19, read-out: EC50 EV-A71 strain TW/72232/04) of 2.54 ± 1.72 µM and an EC50 (EV-A71; EVA71, HeLa R19, read-out: EC50 EV-A71 strain TW/96016/08) of 1.94 ± 0.82 µM. It also gave a CC50 (in vitro [1]; CC50 Hap1 Average) of 97.8 µM, a CC50 (in vitro [1]; Exp 1 CC50 Hap1) of 97.5 µM and a CC50 (in vitro [1]; Exp 2 CC50 Hap1) of 98.1 µM. For the same compound, the CC50 (in vitro [2]; CC50 Average) was over 30 µM, the CC50 (in vitro [2]; CC50 HelaR19 Average) was 93.7 µM and the CC50 (in vitro [2]; Exp 1 CC50) was over 30 µM. The CC50 (in vitro [2]; Exp 1 CC50 HelaR19) was 92.3 µM, the CC50 (in vitro [2]; Exp2 CC50) was over 30 µM and the CC50 (in vitro [2]; Exp 2 CC50 HelaR19) was 95 µM. For the same compound, the “virus titer, TCID50/ml (Figure 2A)” value (CV-A24 (strain Joseph); compound concentration 10 µM) was 316.228 TCID50/ml, the “virus titer, TCID50/ml (Figure 2A)” value (CV-A24 (strain Joseph); compound concentration 30 µM) was 316.228 TCID50/ml and the “virus titer, TCID50/ml (Figure 2A)” value (CV-A24 (strain Joseph); compound concentration 100 µM) was 316.228 TCID50/ml. The “virus titer, TCID50/ml (Figure 2A)” value (CV-A24 (strain Joseph); compound concentration 150 µM) was 316.228 TCID50/ml, the EC50 (HRV-B14; HRVB14, HeLa R19, read-out: EC50 Exp1) was 4.76 µM and the EC50 (HRV-B14; HRVB14, HeLa R19, read-out: EC50 Exp2) was 3.61 µM. It also gave an EC50 (HRV-B14; HRVB14, HeLa R19, read-out: EC50 HRV-B14) of 4.19 ± 0.58 µM, an EC50 (CV-B3; read-out: EC50 BGM Average) of 0.38 µM and an EC50 (CV-B3; read-out: Exp 1 EC50 BGM) of 0.44 µM. For the same compound, the EC50 (CV-B3; read-out: Exp 2 EC50 BGM) was 0.32 µM, the “virus titer, TCID50/ml (Figure 2A)” value (CV-B3 (strain Nancy); compound concentration 10 µM) was 2187.76 TCID50/ml and 1625.6 TCID50/ml and the “virus titer, TCID50/ml (Figure 2A)” value (CV-B3 (strain Nancy); compound concentration 30 µM) was 2187.76 TCID50/ml and 1479.11 TCID50/ml.
